Consider one molecule from patent US10066190B2, “Mild liquid detergent formulations” (Henkel IP & Holding GmbH, priority 2016, dated 2018).

This data set concerns human stratum corneum. Nature of the data set: Corneosurfametry test. The source says:
Another method to measure the skin irritancy potential is corneosurfametry (CSM) test, a noninvasive quantitative test that measures the interaction between surfactants and human stratum corneum. ([…] et al., Dermatology 189: 152-156 (1994)). Corneosurfametry involves removing a few layers of skin using cyanoacrylate skin surface strippings, short contact time with surfactants followed by staining the samples with fuchian dyes. A […] barrier allows greater penetration of the stain, therefore giving a more intense color, which is measured using colorimetrically with L*a*b* color space. This method is predictive of both protein and lipid damage in the skin. CIM (Color Indicator of Mildness) values are obtained from a corneosurfametry test. In a comparative study, the higher the CIM value, the milder the surfactant formulation. The test surfactant solution can be a solution with 3% active surfactant, or a 10% dilution of a surfactant formulation/product which has a total surfactant concentration of about 10%-25%. Corneosurfametry involves removing a few layers of human skin from the volar forearm of healthy adults using skin surface strippings. The skin was collected with D-Squame tapes (for tests with neutral pH formulas) and with Book tape (for tests with high pH formulas). […] Once the tapes are dry, they were analyzed with spectrophotometer. […]

For the molecule `CCCCCCCCCCCCOS(=O)(=O)[O-].[Na+]` [1% SDS, SDS], the CIM worked out at 36.84.
